Measurements published in ChEMBL document CHEMBL1125225, “Delineating the pharmacophoric elements of huperzine A: importance of the unsaturated three-carbon bridge to its AChE inhibitory activity” (J Med Chem, 1991).

Target: T1, Acetylcholinesterase (Rattus norvegicus, UniProt P37136)
T1 sequence (P37136 whole entry): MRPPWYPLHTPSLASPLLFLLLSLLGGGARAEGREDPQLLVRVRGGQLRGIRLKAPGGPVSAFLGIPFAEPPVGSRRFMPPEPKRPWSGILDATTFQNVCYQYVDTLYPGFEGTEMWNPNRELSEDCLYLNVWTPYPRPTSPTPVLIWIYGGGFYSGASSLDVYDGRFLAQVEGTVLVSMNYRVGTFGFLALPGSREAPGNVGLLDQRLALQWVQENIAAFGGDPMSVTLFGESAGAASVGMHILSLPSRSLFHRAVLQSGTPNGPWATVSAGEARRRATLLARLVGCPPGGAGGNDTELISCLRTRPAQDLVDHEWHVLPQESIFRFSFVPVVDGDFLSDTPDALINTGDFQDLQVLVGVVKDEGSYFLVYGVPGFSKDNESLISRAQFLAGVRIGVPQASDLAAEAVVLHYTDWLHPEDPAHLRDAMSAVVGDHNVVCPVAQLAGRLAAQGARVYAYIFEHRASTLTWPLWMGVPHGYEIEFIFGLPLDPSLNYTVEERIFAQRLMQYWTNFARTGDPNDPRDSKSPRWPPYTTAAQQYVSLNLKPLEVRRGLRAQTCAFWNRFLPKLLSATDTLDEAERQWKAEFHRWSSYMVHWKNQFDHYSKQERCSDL
Assay: Compound was tested for its ability to inhibit the action of acetylcholinesterase isolated from rat brain cortex

Compound | IC50 [µM]
NCc1ccc(O)nc1 | > 900
CN(C)Cc1ccc(=O)[nH]c1 | > 900
C/C=C1\C2CCC[C@]1(N)c1ccc(O)nc1C2 | 9.82
C/C=C1\CCc2[nH]c(=O)ccc2[C@]1(C)N | 338
